# Source: paper PMC2263054, “Functional evolution of the vitamin D and pregnane X receptors” (BMC Evolutionary Biology, 2007)
# Where two headings read alike, the source gives them in different places.
# Key:
# [1] = system: glyceraldehyde 3-phosphate dehydrogenase (GAPDH); assay: zebrafish in vivo liver transcription, semi-quantitative RT-PCR: GAPDH; settings: 15 mg/kg intraperitoneally, single dose, 48 hr
# Method: (§1) Adult zebrafish were purchased from a commercial fish supplier and acclimatized for at least two-weeks in 20 L tanks with flow-through freshwater at 22°C. A single dose of 15 mg/kg of 5α-cyprinol, 5β-cyprinol 27-sulfate, 5α-scymnol or 5β-scymnol-27 sulfate, dissolved in saline, was injected intraperitoneally. A control group was injected with saline. After 48 hr, the animals were decapitated and livers of three fish (n = 5 each group) were removed, pooled and weighed, totalizing 15 fish per group. Fish were not fed throughout the experimental period.
# To study the transcription of CYP3C1, ABCB5, PXR, GAPDH and β-actin genes in zebrafish, initial fragments of these genes were identified (Genbank: AW202769, Genbank: BQ284593, Genbank: AAM22215, Genbank: BC083506, Genbank: AF057040, respectively). […] Primer pairs for amplifying CYP3C1 fragment were 5'-[…]-3' (sense) and 5'-[…]-3' (antisense) and for amplifying ABCB5 were 5'-[…]-3' (sense) and 5'-[…]-3' (antisense). The PCR primers for PXR were 5'-[…]-3' (sense) and 5'-[…]-3' (antisense), for amplifying GAPDH were 5'-[…]-3' (sense) and 5' […] 3' (antisense) and for β-actin were 5'-[…]-3' (sense) and 5'-[…]-3' (antisense). RNA was isolated using Trizol (Invitrogen) according to manufacturer's instructions. […] The RNA integrity was checked by non-denaturing gel electrophoresis using 1 μg of total RNA in each sample.
# The PXR, CYP3C1, ABCB5 and GAPDH transcript levels were quantified using Gel-Quant™ (Multiplexed Biotechologies) and β-actin was used to normalize the data. The Shapiro-Wilk W test was used to evaluate normality. When data were parametric the analysis was performed using Student t test; otherwise Mann Whitney U test was applied.
# [2] = system: Ciona VDR/PXR; settings: HepG2-NTCP cells, luciferase reporter; unit not given; also cells saying No effect
# [3] = system: CYP3C1; assay: zebrafish in vivo liver transcription, semi-quantitative RT-PCR: CYP3C1
# Method: as §1, with “period. […].” for “period.”
# To study the transcription of CYP3C1, ABCB5, PXR, GAPDH and β-actin genes in zebrafish, initial fragments of these genes were identified (Genbank: AW202769, Genbank: BQ284593, Genbank: AAM22215, Genbank: BC083506, Genbank: AF057040, respectively). The PCR primers for CYP3C1 were designed using MacVector Software and primers for MDR1 were designed using Primer 3 Software (Whitehead Institute for Biomedical Research; [75]). Primer pairs for amplifying CYP3C1 fragment were 5'-[…]-3' (sense) and 5'-[…]-3' (antisense) and for amplifying ABCB5 were 5'-[…]-3' (sense) and 5'-[…]-3' (antisense). The PCR primers for PXR were 5'-[…]-3' (sense) and 5'-[…]-3' (antisense), for amplifying GAPDH were 5'-[…]-3' (sense) and 5' […] 3' (antisense) and for β-actin were 5'-[…]-3' (sense) and 5'-[…]-3' (antisense). RNA was isolated using Trizol (Invitrogen) according to manufacturer's instructions. Purity and concentration of RNA of each sample were verified at 260 nm. The RNA integrity was checked by non-denaturing gel electrophoresis using 1 μg of total RNA in each sample.
# Two micrograms of total RNA were reversed transcribed using Ominiscript RT Kit (Qiagen, Valencia, CA, USA). cDNA concentration was checked at 260 nm, and the amount adjusted to 1 μg to perform semi-quantitative RT-PCR. The expected size of the PXR, Cyp3C1, abcb5, GAPDH and β-actin fragments were 577, 477, 218, 234 and 550 bp, respectively. Biotools DNA polymerase (Biotools B&M Labs, S.A., Madrid, Spain) kit was used for the PCR reaction using a thermocycler Personal Mastercycler (Eppendörf) with the following PCR program: 5 cycles of 94°C for 5 s, 72°C for 35 s; 5 cycles of 94°C for 5 s, 70°C for 10 s, 72°C for 35 s; and 23, 24, 35, 15 and 24 cycles (PXR, Cyp3C1, abcb5, GAPDH and β-actin, respectively) of 94°C for 5 s, 61, 54, 48, 49 and 61°C for 10 s (PXR, Cyp3C1, abcb5, GAPDH and β-actin, respectively), and 72°C for 35 s. The PXR, CYP3C1, ABCB5 and GAPDH transcript levels were quantified using Gel-Quant™ (Multiplexed Biotechologies) and β-actin was used to normalize the data. The Shapiro-Wilk W test was used to evaluate normality. When data were parametric the analysis was performed using Student t test; otherwise Mann Whitney U test was applied. […]
# [4] = system: zebrafish PXR; settings: cited from earlier work
# [5] = target: T1, Sea lamprey VDR (Petromyzon marinus, UniProt Q7ZZY9); format: cell-based; settings: HepG2-NTCP cells, luciferase reporter; unit not given; also cells saying No effect
# T1 sequence (Q7ZZY9 92-406): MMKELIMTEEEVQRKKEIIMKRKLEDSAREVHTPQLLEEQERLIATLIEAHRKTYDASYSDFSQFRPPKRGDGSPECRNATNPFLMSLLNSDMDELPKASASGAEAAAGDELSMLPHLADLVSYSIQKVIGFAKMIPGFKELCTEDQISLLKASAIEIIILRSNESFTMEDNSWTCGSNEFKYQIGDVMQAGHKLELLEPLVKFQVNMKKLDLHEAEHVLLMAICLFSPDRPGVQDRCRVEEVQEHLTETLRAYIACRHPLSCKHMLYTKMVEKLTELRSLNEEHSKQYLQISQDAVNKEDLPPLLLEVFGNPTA
compound,measurement,setting,value
C[C@H](CCCC(CO)COS(=O)(=O)O)[C@H]1CC[C@H]2[C@@H]3[C@H](O)C[C@H]4C[C@H](O)CC[C@]4(C)[C@H]3C[C@H](O)[C@]12C (stereo partly drawn) [5α-Cyprinol 27-sulfate],liver transcription of GAPDH,[1],2.38 ± 0.79 arbitrary units normalized to β-actin
same,Ciona VDR/PXR EC50 ± SD,[2],No effect
same,liver transcription of CYP3C1,"[3]; zebrafish, 15 mg/kg intraperitoneally, single dose, 48 hr",1.71 ± 0.50 arbitrary units normalized to β-actin
same,activity at recombinant zebrafish PXR,"[4]; ref [29],[53]",efficacious activator of recombinant zebrafish PXR
same,Sea lamprey VDR EC50 ± SD,[5],No effect
"C[C@H](CCCC(CO)CO)[C@H]1CC[C@H]2[C@@H]3[C@H](O)C[C@H]4C[C@H](O)CC[C@]4(C)[C@H]3C[C@H](O)[C@]12C [5α-Cyprinol, 5α-cholestan-3α,7α,12α,26,27-pentol]",liver transcription of GAPDH,[1],1.50 ± 0.88 arbitrary units normalized to β-actin
same,Ciona VDR/PXR EC50 ± SD,[2],No effect
same,liver transcription of CYP3C1,"[3]; ip, 15 mg/kg, 48 h",1.33 ± 0.33 arbitrary units normalized to β-actin
same,activity at recombinant zebrafish PXR,[4],both inactive at recombinant zebrafish PXR
same,Sea lamprey VDR EC50 ± SD,[5],No effect
